Assay results taken from paper PMC7824769, “Identification of Small Molecules Blocking the Pseudomonas aeruginosa Type III Secretion System Protein PcrV” (Biomolecules, 2021).
Several values for one entry are separate records, joined by “and”; a condition that tells them apart may be missing. Identical values can stand only once.

Assays:
[1] = target: PcrV (Pseudomonas aeruginosa, UniProt G3XD49); assay: SPR dose-response binding to immobilized PcrV (equilibrium analysis); conditions: for Binding to PcrV in SPR (in words): dose-response SPR
Protocol: The SPR screening was performed using the ProteOn^TM XPR36 Protein Interaction Array System (Bio-Rad Laboratories Inc., Hercules, CA, USA) with ProteOn GLH sensor chip (Bio-Rad Laboratories Inc., Hercules, CA, USA), and the results were analyzed with the ProteOn Manager software^TM (Bio-Rad Laboratories Inc., Hercules, CA, USA), Excel 2016 (Microsoft Office), and GraphPad Prism 7.04. All SPR experiments were performed at 25 °C. The multichannel module of the ProteOn system was in the vertical position during protein immobilization. The proteins were attached to the surface of a GLH sensor chip via amine coupling chemistry. A buffer scouting was performed to elucidate the optimal binding conditions of PcrV to the GLH sensor chip. First, channels 1–4 on the chip surface were activated using a 1:1 mixture of 40 mM 1-ethyl-3-(3-dimethylaminopropyl)carbodiimide hydrochloride (EDAC) (Bio-Rad Laboratories Inc., Hercules, CA, USA) and 10 mM N-hydroxysulfosuccinimide (sulfo-NHS, Bio-Rad Laboratories Inc., Hercules, CA, USA) for 300 s at 30 µL/min. Next, the proteins PcrV (33,398.6 Da, 6.37 mg/mL) was diluted in 10 mM NaOAc (pH 4, 4.5, and 5) to 0.05 mg/mL. PcrV was immobilized in channel 1–3 for 540 s at 30 µL/min. Channel 4 was flushed with 10 mM NaOAc (pH 5) for 540 s at 30 µL/min. As deactivating agent, a 1:1 mixture of 1 M ethanolamine and milli-Q filtered water was used. The deactivating solution was injected over all four channels for 300 s at 30 µL/min. Phosphate buffered saline with Tween (PBST; 10 mM phosphate buffer pH 7.4, 140 mM NaCl, 2.7 mM KCl, and 0.05% Tween 20) was used as the running buffer. The final amount of immobilized protein was measured in resonance units (RU) relative to the signal of the baseline prior activation. […] Immobilization of PcrV diluted in sodium acetate of pH 4.5 in one channel and of pH 5 in one channel were used in the beginning of the screening procedure (for plate 1–26). Since no difference was found between the two pH values, the PcrV protein was diluted in sodium acetate at pH 5 only (in two channels) from plate 27 and the rest of the screen. The immobilization procedure for the screening was performed as described above with the addition that the control protein carbonic anhydrase isoenzyme II from bovine erythrocytes (CAII, Sigma-Aldrich, article number 2522) was immobilized in one channel that was activated and deactivated as described above. CAII (1 mg/mL in PBS) was deactivated when diluted in 10 mM sodium acetate (pH 4) to 0.05 mg/mL. Immobilization level of the deactivated CAII was 18,000 RU. Deactivated CAII was used as a control protein according to the recommendations by the ProteOn manufacturer (Bio-Rad Laboratories Inc., Hercules, CA, USA). As running buffer, we employed PBS (pH 7.4, 0.05% Tween 20).
First, the PcrV protein was immobilized in two channels as described above while keeping a blank channel which was activated and deactivated as described above. The multichannel module of the ProteOn system was in horizontal position during the small molecule interaction studies. They were serially diluted to (400,) 200, 100, 50, 25, 12.5, 6.25, and (3.125); or 100, 50, 25, and 12.5 µM; or 100, 66.7, 44.4, 29.6, 19.7, and 13.2 µM in PBST (0.05% Tween 20) with a total concentration of 5% DMSO in 96-well plates. The running buffer was PBST (0.05% Tween 20) containing 5% DMSO. The analytes were injected at a flowrate of 100 µL/min, contact time was 60 s, and dissociation time was 60–120 s. Solvent correction was performed continuously during the experiments to account for bulk response of DMSO. The data was then baseline-aligned, processed by channel referencing with the blank channel, and solvent-corrected. The equilibrium dissociation constant (KD) values were determined from equilibrium analysis in the ProteOn Manager software^TM. Solubility problems frequently hampered KD determination since the small molecules could not always be dissolved in concentrations high enough to reach a plateau. […]

[2] = tested on: J774 cells infected with P. aeruginosa strain PAK; assay: cells; type: cell-based, Pseudomonas aeruginosa; conditions: for viability at 25 µM / viability at 50 µM / viability at 100 µM / viability at 200 µM: Pseudomonas aeruginosa, uninfected control = 100%, infected control = 0%; for viability at 25 µM: J774, compound 25 µM, read-out: Viability Assay (% of Uninfected Control) 25 µM; for viability at 50 µM: J774, compound 50 µM, read-out: Viability Assay (% of Uninfected Control) 50 µM; for viability at 100 µM: J774, compound 100 µM, read-out: Viability Assay (% of Uninfected Control) 100 µM; for viability at 200 µM: J774, compound 200 µM; for Anti-virulence efficacy in the infection assay (in words): 25-200 µM
Protocol: The cell viability assay was performed essentially as described before. J774 cells were seeded in 96-well micro-titer plates (Nunc), 100 µL/well, to a final number of 50,000 cells/well in Dulbecco’s modified Eagle’s medium (DMEM) with glutamax (Merck) supplemented with 10% fetal calf serum (FCS) and 3 µg/mL gentamicin and incubated for 16-18 h. Overnight cultures of the P. aeruginosa strains PAK and PAKpcrV [10] were grown in Luria Broth (LB) on a rotary shaker at 220 rpm at 37 °C. Prior to infection, the bacteria were diluted 1:10 in DMEM + glutamax and incubated for 1 h at 37 °C (shaking). The J774 cells were washed once with PBS, then 30 µL of DMEM with glutamax and 10% FCS supplemented with the potential binders at concentrations of 50, 100, 200, and 400 µM were added to the wells in triplicates. The infection was initiated by adding 30 µL of the diluted bacterial solutions (where the OD600 had been diluted to 0.0008) to each well to initiate infection. This infection results in a final bacterial concentration of OD600 = 0.0004 and a multiplicities of infection (MOI) of approximately 8, with final concentrations of the compounds at 25, 50, 100, and 200 µM in 60 µL of DMEM + glutamax and 5% FCS. In the primary screening, the compounds were run at one concentration (100 µM) in duplicates. As an infection control, the wild-type strain PAK with 1% DMSO was added, and as a positive control, PAKpcrV with 1% DMSO was added into four wells each. After 3 h and 30 min, 10 µL of UptiBlue Viable Cell Counting Kit (Interchime, France) was added to all wells. The infection was followed under the light microscope and the fluorescence (excitation 535 nm and emission 595 nm) was measured at 4, 5, and 6 h in a microplate reader (Synergy™ H4, Biotek). The results were calculated as percentage of living cells compared to uninfected control, where the uninfected control was set to 100% living cells and the infected control was set to 0% living cells. As a control, compounds were added to uninfected cells in a parallel experiment and viability was calculated as above to screen for cell toxicity. A compound was considered toxic if the viability was <80% of the uninfected control after 6 h of incubation and if a visual change of cell morphology was observed by microscopy. Z’ was calculated for each plate to ensure good quality throughout the screening. Only results from plates with a Z’ > 0.4 were counted. Standard deviation was calculated with Gaussian approximation when appropriate and shown as error bars in Figure 3C and Figure 4A.
The T3SS is important for P. aeruginosa infection of eukaryotic cells, and a T3SS activator mutant or a mutant lacking the T3SS tip protein PcrV are not able to infect eukaryotic cells. The macrophage cell line, J774, was infected with the wild-type P. aeruginosa strain PAK, and the potential PcrV binders were added to the wells at a final concentration of 100 µM to screen for inhibition of infection. The T3SS-mediated cytotoxic effect on the eukaryotic cells was measured by using a viability staining method (Uptiblue, Interchim), and the results were measured after 4, 5, and 6 h of infection. The pcrV-mutant (PAKpcrV), which is not able to infect macrophages due to deletion of the PcrV protein, was used as a control.

[3] = SPR KD, equilibrium analysis, mean ± SD of three or more independent experiments, individual values where n < 3, 25 °C, PBST 5% DMSO
[4] = KD ± standard error of KD (Table S1), single experiment, standard error from ProteOn Manager software

Sequence of PcrV (G3XD49 entry or part of it): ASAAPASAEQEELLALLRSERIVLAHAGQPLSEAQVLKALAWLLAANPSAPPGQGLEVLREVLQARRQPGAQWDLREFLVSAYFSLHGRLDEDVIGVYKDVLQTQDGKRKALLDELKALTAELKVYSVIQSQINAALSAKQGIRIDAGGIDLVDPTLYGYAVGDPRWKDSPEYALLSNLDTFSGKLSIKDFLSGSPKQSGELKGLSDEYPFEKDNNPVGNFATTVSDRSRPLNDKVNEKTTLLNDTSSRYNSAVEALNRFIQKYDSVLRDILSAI

Compound | Kd [1, 3] | Binding to PcrV in SPR (in words) [1] | Kd [1, 4] | Rmax (Table S1) ([1]; single experiment) | viability at 25 µM [2] | viability at 50 µM [2] | viability at 100 µM [2] | viability at 200 µM [2] | Anti-virulence efficacy in the infection assay (in words) [2]
O=C(O)CCCOc1ccc(Cc2ccccc2)cc1 [Compound 16] | > 600 µM | – | – | – | – | – | – | – | –
O=C(O)CCCOc1ccc(I)cc1 [Compound 4] | > 600 µM | no binding at the examined concentrations | – | – | – | – | – | – | –
Cc1c(Br)ccc(OCCCC(=O)NC(C(=O)O)c2ccccc2)c1C (centres unmarked) [Compound 21] | 67 µM and 88 µM | – | 66.5 ± 18.5 µM | 149.8 | 12% | 26% | 36% | 30% | –
Cc1c(Br)ccc(OCCCCC(=O)O)c1C [Compound 31] | 120 µM and 138 µM | – | – | – | 11% | 17% | 18% | 17% | no or modest anti-virulence activity without clear dose-response
Cc1cc(Br)cc(C)c1OCCCC(=O)O [Compound 13] | 431 ± 110 µM | reduced binding | – | – | 19% | 18% | 21% | 20% | –
Cc1cc(OCCCC(=O)O)cc(C)c1Br [Compound 14] | < 150 µM and 148 µM | – | 80.7 ± 30.3 µM | 78.9 | 13% | 23% | 26% | 32% | as efficacious as or better than H1
O=C(O)CCCOc1ccc(Br)cc1F [Compound 5] | > 600 µM | no binding at the examined concentrations | – | – | – | – | – | – | –
COc1cc(OC)cc(OCCCC(=O)O)c1 [Compound 7] | > 600 µM | impaired binding | – | – | – | – | – | – | –
O=C(O)CCCOc1cc(Cl)cc(Cl)c1 [Compound 2] | < 127 µM and 102 µM and 127 µM | – | – | – | – | – | – | – | –
Cc1c(Br)ccc(OCCCC(=O)Nc2cc(F)c(F)cc2C(=O)O)c1C [Compound 24] | > 600 µM | failed to bind PcrV | – | – | – | – | – | – | –
O=C(O)CCCOc1ccc(Cl)cc1 [Compound 3] | > 600 µM | no binding at the examined concentrations | – | – | – | – | – | – | –
O=C(O)CCCOc1ccc(C2CCCCC2)cc1 [Compound 15] | 153 µM | – | – | – | 12% | 17% | 24% | 17% | –
Cc1c(Br)ccc(OCCCC(=O)N2CCCCC2C(=O)O)c1C (centres unmarked) [Compound 22] | 62 µM and 77 µM | – | 61.5 ± 14.9 µM | 108.6 | 18% | 27% | 29% | 28% | –
Cc1c(Br)ccc(OCCCC(=O)NS(C)(=O)=O)c1C [Compound 26] | 93 ± 31 µM | – | 135 ± 30 µM | – | 10% | 11% | 17% | 13% | –
Cc1cc(C#N)cc(C)c1OCCCC(=O)O [Compound 12] | > 600 µM | reduced binding | – | – | – | – | – | – | –
Cc1c(Br)ccc(OCCCC(=O)N2CCCC(C(=O)O)C2)c1C (centres unmarked) [Compound 20] | 71 µM and 131 µM | – | 71.2 ± 23 µM | – | 15% | 15% | 15% | 9% | no or modest anti-virulence activity without clear dose-response
Cc1c(Br)ccc(OCCCC(=O)NS(=O)(=O)C(F)(F)F)c1C [Compound 25] | 102 µM and 164 µM | – | – | – | 9% | 11% | 22% | 34% | as efficacious as or better than H1
O=C(O)CCCOc1cccc(C(=O)O)c1 [Compound 10] | > 600 µM | no binding to PcrV | – | – | – | – | – | – | –
O=C(O)CCCOc1ccc2c(c1)OCO2 [Compound 8] | > 600 µM | impaired binding | – | – | – | – | – | – | –
COc1ccc(Br)cc1OCCCC(=O)O [Compound 6] | > 600 µM | impaired binding | – | – | – | – | – | – | –
COC(=O)CCCOc1ccc(Br)c(C)c1C [Compound 29] | 110 ± 83 µM | – | 206 ± 77 µM | 60 | 8% | 12% | 23% | 14% | –
O=C(O)CCCOc1ccc2ccc(=O)oc2c1 [Compound 11] | > 600 µM | no binding to PcrV | – | – | – | – | – | – | –
O=C(O)CCCOc1cccc(C(F)(F)F)c1 [Compound 9] | > 600 µM | no binding to PcrV | – | – | – | – | – | – | –
